From BindingDB's records for doi:10.1007/s00044-007-9052-5 (Central Drug Research Institute, 2008)

Target: DNA ligase A (Mycobacterium tuberculosis (strain ATCC 25618 / H37Rv), UniProt P9WNV1)
Experiment: Enzyme Assay
Source text: All assays have been carried out using procedures previously described by our group (Srivastava et al., 2005a; 2005b; 2007)

`CC1(C)O[C@H]2OC(C(CCO)NCCCN[C@@H](CCO)C3O[C@@H]4OC(C)(C)O[C@@H]4[C@H]3OCc3ccccc3)[C@H](OCc3ccccc3)[C@H]2O1` (stereo partly specified) [Glycosylamine, 4] showed an IC50 of 46.2 µM.
